Measurements: patent publication US20040097737A1 (priority 2001, published 2004)

Test system: patients diagnosed as acute attack of vertigo
Details: human, in vivo

For `OC(CCCN1CCCCC1)(c1ccccc1)c1ccccc1` [Diphenidol], the “Total effective (patients effective/sample)” value was 19/28 and the Total effective percentage was 67.9%.
